{"source": "patent US9670227B2", "about": "“Thienopyrimidine derivatives, a process for their preparation and pharmaceutical compositions containing them” (LES LABORATOIRES SERVIER, priority 2013, dated 2017)", "key": {"[1]": {"molecular_target": "Mcl-1 protein (UniProtKB primary accession number: Q07820) (Homo sapiens, UniProt Q07820)", "sequence (Q07820 whole entry)": "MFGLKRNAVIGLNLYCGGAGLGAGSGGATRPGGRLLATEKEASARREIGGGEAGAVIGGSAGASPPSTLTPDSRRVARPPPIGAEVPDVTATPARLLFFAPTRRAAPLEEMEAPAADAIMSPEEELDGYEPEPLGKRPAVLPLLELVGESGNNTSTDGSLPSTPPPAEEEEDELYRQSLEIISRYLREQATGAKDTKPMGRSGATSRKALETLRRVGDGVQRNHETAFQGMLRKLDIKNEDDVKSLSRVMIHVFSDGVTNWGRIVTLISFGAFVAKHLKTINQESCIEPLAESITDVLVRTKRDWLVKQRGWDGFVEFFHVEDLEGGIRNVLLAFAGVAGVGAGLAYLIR", "assay": "Inhibition of Mcl-1 by fluorescence polarisation, Method 1", "format": "binding", "conditions": "fluorescence polarisation test; Method 2 values are underlined in the patent (underlining not visible here); read-out: IC50 (M) Mcl-1 FP", "outline": "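Buffer of 10 mM HEPES pH 7.4 with 150 mM NaCl and 0.05% Tween 20 held 5 nM Mcl-1 and 1 nM fluorescein-tagged ligand (final). Compounds were tested as 11-point serial dilutions at 5% final DMSO, and binding was read by FP.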"}, "[2]": {"tested_on": "H929 multiple myeloma tumour line", "assay": "In vitro cytotoxicity, Microculture Tetrazolium Assay", "format": "cell-based", "conditions": "Homo sapiens, NCI-H929, 48 h, H929 cells, 48 hours exposure, MTT; read-out: IC50 (μM) MTT H929", "protocol": "The cytotoxicity studies were carried out on the H929 multiple myeloma tumour line.\nThe cells are distributed onto microplates and exposed to the test compounds for 48 hours."}}, "data": [{"smiles": "Cc1c(-c2c(-c3ccc(F)o3)sc3ncnc(OC(Cc4ccccc4OCC(=O)NC4CCCC4)C(=O)O)c23)ccc(OCCN2CCN(C)CC2)c1Cl", "note": "[Example 152, (2R)-2-{[(5Sa)-5-{3-chloro-2-methyl-4-[2-(4-methylpiperazin-1-yl)ethoxy]phenyl}-6-(5-fluorofuran-2-yl)thieno[2,3-d]pyrimidin-4-yl]oxy}-3-{2-[2-(cyclopentylamino)-2-oxoethoxy]phenyl}propanoic acid]", "values": [{"measurement": "IC50", "setting": "[1]", "value": "9.9e-09", "unit": "M"}, {"measurement": "IC50", "setting": "[2]", "value": 0.19, "unit": "µM"}]}, {"smiles": "Cc1c(-c2c(-c3ccc(F)o3)sc3ncnc(OC(Cc4ccccc4OCC(=O)NCc4ccccc4)C(=O)O)c23)ccc(OCCN2CCN(C)CC2)c1Cl", "note": "[Example 153, (2R)-3-{2-[2-(benzylamino)-2-oxoethoxy]phenyl}-2-{[(5Sa)-5-{3-chloro-2-methyl-4-[2-(4-methylpiperazin-1-yl)ethoxy]phenyl}-6-(5-fluorofuran-2-yl)thieno[2,3-d]pyrimidin-4-yl]oxy}propanoic acid]", "values": [{"measurement": "IC50", "setting": "[1]", "value": "5e-09", "unit": "M"}, {"measurement": "IC50", "setting": "[2]", "value": 0.146, "unit": "µM"}]}, {"smiles": "CCCNC(=O)COc1ccccc1CC(Oc1ncnc2sc(-c3ccc(F)o3)c(-c3ccc(OCCN4CCN(C)CC4)c(Cl)c3C)c12)C(=O)O", "note": "[Example 154, (2R)-2-{[(5Sa)-5-{3-chloro-2-methyl-4-[2-(4-methylpiperazin-1-yl)ethoxy]phenyl}-6-(5-fluorofuran-2-yl)thieno[2,3-d]pyrimidin-4-yl]oxy}-3-{2-[2-oxo-2-(propylamino)ethoxy]phenyl}propanoic acid]", "values": [{"measurement": "IC50", "setting": "[1]", "value": "6.6e-09", "unit": "M"}, {"measurement": "IC50", "setting": "[2]", "value": 0.1, "unit": "µM"}]}, {"smiles": "Cc1c(-c2c(-c3ccc(F)o3)sc3ncnc(OC(Cc4ccccc4OCC(=O)NCCc4ccccc4)C(=O)O)c23)ccc(OCCN2CCN(C)CC2)c1Cl", "note": "[Example 155, (2R)-2-{[(5Sa)-5-{3-chloro-2-methyl-4-[2-(4-methylpiperazin-1-yl)ethoxy]phenyl}-6-(5-fluorofuran-2-yl)thieno[2,3-d]pyrimidin-4-yl]oxy}-3-(2-{2-oxo-2-[(2-phenylethyl)amino]ethoxy}phenyl)propanoic acid]", "values": [{"measurement": "IC50", "setting": "[1]", "value": "7.6e-09", "unit": "M"}, {"measurement": "IC50", "setting": "[2]", "value": 0.189, "unit": "µM"}]}, {"smiles": "CCCCNC(=O)COc1ccccc1CC(Oc1ncnc2sc(-c3ccc(F)o3)c(-c3ccc(OCCN4CCN(C)CC4)c(Cl)c3C)c12)C(=O)O", "note": "[Example 156, (2R)-3-{2-[2-(butylamino)-2-oxoethoxy]phenyl}-2-{[(5Sa)-5-{3-chloro-2-methyl-4-[2-(4-methylpiperazin-1-yl)ethoxy]phenyl}-6-(5-fluorofuran-2-yl)thieno[2,3-d]pyrimidin-4-yl]oxy}propanoic acid]", "values": [{"measurement": "IC50", "setting": "[1]", "value": "7e-09", "unit": "M"}, {"measurement": "IC50", "setting": "[2]", "value": 0.092, "unit": "µM"}]}, {"smiles": "COCCNC(=O)COc1ccccc1CC(Oc1ncnc2sc(-c3ccc(F)o3)c(-c3ccc(OCCN4CCN(C)CC4)c(Cl)c3C)c12)C(=O)O", "note": "[Example 157, (2R)-2-{[(5Sa)-5-{3-chloro-2-methyl-4-[2-(4-methylpiperazin-1-yl)ethoxy]phenyl}-6-(5-fluorofuran-2-yl)thieno[2,3-d]pyrimidin-4-yl]oxy}-3-(2-{2-[(2-methoxyethyl)amino]-2-oxoethoxy}phenyl)propanoic acid]", "values": [{"measurement": "IC50", "setting": "[1]", "value": "7e-09", "unit": "M"}, {"measurement": "IC50", "setting": "[2]", "value": 0.286, "unit": "µM"}]}, {"smiles": "Cc1c(-c2c(-c3ccc(F)o3)sc3ncnc(OC(Cc4ccccc4OCc4cc(C(F)(F)F)ccn4)C(=O)O)c23)ccc(OCCN2CCN(C)CC2)c1Cl", "note": "[Example 159, (2R)-2-{[(5Sa)-5-{3-chloro-2-methyl-4-[2-(4-methylpiperazin-1-yl)ethoxy]phenyl}-6-(5-fluorofuran-2-yl)thieno[2,3-d]pyrimidin-4-yl]oxy}-3-(2-{[4-(trifluoromethyl)pyridin-2-yl]methoxy}phenyl)propanoic acid]", "values": [{"measurement": "IC50", "setting": "[1]", "value": "9.8e-09", "unit": "M"}, {"measurement": "IC50", "setting": "[2]", "value": 0.246, "unit": "µM"}]}, {"smiles": "COc1nc(C)cc(COc2ccccc2CC(Oc2ncnc3sc(-c4ccc(F)o4)c(-c4ccc(OCCN5CCN(C)CC5)c(Cl)c4C)c23)C(=O)O)n1", "note": "[Example 160, (2R)-2-{[(5Sa)-5-{3-chloro-2-methyl-4-[2-(4-methylpiperazin-1-yl)ethoxy]phenyl}-6-(5-fluorofuran-2-yl)thieno[2,3-d]pyrimidin-4-yl]oxy}-3-{2-[(2-methoxy-6-methylpyrimidin-4-yl)methoxy]phenyl}propanoic acid]", "values": [{"measurement": "IC50", "setting": "[1]", "value": "5e-09", "unit": "M"}, {"measurement": "IC50", "setting": "[2]", "value": 0.021, "unit": "µM"}]}, {"smiles": "Cc1cc(COc2ccccc2CC(Oc2ncnc3sc(-c4ccc(F)o4)c(-c4ccc(OCCN5CCN(C)CC5)c(Cl)c4C)c23)C(=O)O)ncn1", "note": "[Example 161, (2R)-2-{[(5Sa)-5-{3-chloro-2-methyl-4-[2-(4-methylpiperazin-1-yl)ethoxy]phenyl}-6-(5-fluorofuran-2-yl)thieno[2,3-d]pyrimidin-4-yl]oxy}-3-{2-[(6-methylpyrimidin-4-yl)methoxy]phenyl}propanoic acid]", "values": [{"measurement": "IC50", "setting": "[1]", "value": "3.9e-09", "unit": "M"}, {"measurement": "IC50", "setting": "[2]", "value": 0.081, "unit": "µM"}]}, {"smiles": "COc1cc(COc2ccccc2CC(Oc2ncnc3sc(-c4ccc(F)o4)c(-c4ccc(OCCN5CCN(C)CC5)c(Cl)c4C)c23)C(=O)O)ncn1", "note": "[Example 162, (2R)-2-{[(5Sa)-5-{3-chloro-2-methyl-4-[2-(4-methylpiperazin-1-yl)ethoxy]phenyl}-6-(5-fluorofuran-2-yl)thieno[2,3-d]pyrimidin-4-yl]oxy}-3-{2-[(6-methoxypyrimidin-4-yl)methoxy]phenyl}propanoic acid]", "values": [{"measurement": "IC50", "setting": "[1]", "value": "9.9e-09", "unit": "M"}, {"measurement": "IC50", "setting": "[2]", "value": 0.027, "unit": "µM"}]}, {"smiles": "Cc1c(-c2c(-c3ccc(F)o3)sc3ncnc(OC(Cc4ccccc4OCc4ccc(F)cn4)C(=O)O)c23)ccc(OCCN2CCN(C)CC2)c1Cl", "note": "[Example 163, (2R)-2-{[(5Sa)-5-{3-chloro-2-methyl-4-[2-(4-methylpiperazin-1-yl)ethoxy]phenyl}-6-(5-fluorofuran-2-yl)thieno[2,3-d]pyrimidin-4-yl]oxy}-3-{2-[(5-fluoropyridin-2-yl)methoxy]phenyl}propanoic acid]", "values": [{"measurement": "IC50", "setting": "[1]", "value": "1.2e-08", "unit": "M"}, {"measurement": "IC50", "setting": "[2]", "value": 0.047, "unit": "µM"}]}, {"smiles": "Cc1c(-c2c(-c3ccc(F)o3)sc3ncnc(OC(Cc4ccccc4OCc4cccc(C(F)(F)F)n4)C(=O)O)c23)ccc(OCCN2CCN(C)CC2)c1Cl", "note": "[Example 164, (2R)-2-{[(5Sa)-5-{3-chloro-2-methyl-4-[2-(4-methylpiperazin-1-yl)ethoxy]phenyl}-6-(5-fluorofuran-2-yl)thieno[2,3-d]pyrimidin-4-yl]oxy}-3-(2-{[6-(trifluoromethyl)pyridin-2-yl]methoxy}phenyl)propanoic acid]", "values": [{"measurement": "IC50", "setting": "[1]", "value": "8.2e-09", "unit": "M"}, {"measurement": "IC50", "setting": "[2]", "value": 0.046, "unit": "µM"}]}, {"smiles": "Cc1c(-c2c(-c3ccc(F)o3)sc3ncnc(OC(Cc4ccccc4OCc4ccnc(C(F)(F)F)n4)C(=O)O)c23)ccc(OCCN2CCN(C)CC2)c1Cl", "note": "[Example 169, (2R)-2-{[(5Sa)-5-{3-chloro-2-methyl-4-[2-(4-methylpiperazin-1-yl)ethoxy]phenyl}-6-(5-fluorofuran-2-yl)thieno[2,3-d]pyrimidin-4-yl]oxy}-3-(2-{[2-(trifluoromethyl)pyrimidin-4-yl]methoxy}phenyl)propanoic acid]", "values": [{"measurement": "IC50", "setting": "[1]", "value": "9e-09", "unit": "M"}, {"measurement": "IC50", "setting": "[2]", "value": 0.009, "unit": "µM"}]}, {"smiles": "Cc1c(-c2c(-c3ccc(F)o3)sc3ncnc(OC(Cc4ccccc4OCc4ccnc(-c5ccsc5)n4)C(=O)O)c23)ccc(OCCN2CCN(C)CC2)c1Cl", "note": "[Example 173, (2R)-2-{[(5Sa)-5-{3-chloro-2-methyl-4-[2-(4-methylpiperazin-1-yl)ethoxy]phenyl}-6-(5-fluorofuran-2-yl)thieno[2,3-d]pyrimidin-4-yl]oxy}-3-(2-{[2-(thiophen-3-yl)pyrimidin-4-yl]methoxy}phenyl)propanoic acid]", "values": [{"measurement": "IC50", "setting": "[1]", "value": "3.1e-09", "unit": "M"}, {"measurement": "IC50", "setting": "[2]", "value": 0.004, "unit": "µM"}]}, {"smiles": "Cc1c(-c2c(-c3ccc(F)o3)sc3ncnc(OC(Cc4ccccc4OCc4ccnc(OCC(F)(F)F)n4)C(=O)O)c23)ccc(OCCN2CCN(C)CC2)c1Cl", "note": "[Example 178, (2R)-2-{[(5Sa)-5-{3-chloro-2-methyl-4-[2-(4-methylpiperazin-1-yl)ethoxy]phenyl}-6-(5-fluorofuran-2-yl)thieno[2,3-d]pyrimidin-4-yl]oxy}-3-(2-{[2-(2,2,2-trifluoroethoxy)pyrimidin-4-yl]methoxy}phenyl)propanoic acid]", "values": [{"measurement": "IC50", "setting": "[1]", "value": "6.3e-09", "unit": "M"}, {"measurement": "IC50", "setting": "[2]", "value": 0.002, "unit": "µM"}]}, {"smiles": "Cc1c(-c2c(-c3ccc(F)o3)sc3ncnc(OC(Cc4ccccc4OCc4ccncn4)C(=O)O)c23)ccc(OCCN2CCN(C)CC2)c1Cl", "note": "[Example 179, (2R)-2-{[(5Sa)-5-{3-chloro-2-methyl-4-[2-(4-methylpiperazin-1-yl)ethoxy]phenyl}-6-(5-fluorofuran-2-yl)thieno[2,3-d]pyrimidin-4-yl]oxy}-3-[2-(pyrimidin-4-ylmethoxy)phenyl]propanoic acid]", "values": [{"measurement": "IC50", "setting": "[1]", "value": "5e-09", "unit": "M"}, {"measurement": "IC50", "setting": "[2]", "value": 0.03, "unit": "µM"}]}, {"smiles": "Cc1c(-c2c(-c3ccc(F)o3)sc3ncnc(OC(Cc4ccccc4OCc4ccnn4C4CCCC4)C(=O)O)c23)ccc(OCCN2CCN(C)CC2)c1Cl", "note": "[Example 183, (2R)-2-{[(5Sa)-5-{3-chloro-2-methyl-4-[2-(4-methylpiperazin-1-yl)ethoxy]phenyl}-6-(5-fluorofuran-2-yl)thieno[2,3-d]pyrimidin-4-yl]oxy}-3-{2-[(1-cyclopentyl-1H-pyrazol-5-yl)methoxy]phenyl}propanoic acid]", "values": [{"measurement": "IC50", "setting": "[1]", "value": "5.7e-09", "unit": "M"}, {"measurement": "IC50", "setting": "[2]", "value": 0.012, "unit": "µM"}]}, {"smiles": "Cc1c(-c2c(-c3ccc(F)o3)sc3ncnc(OC(Cc4ccccc4OCc4ccnn4CC4CC4)C(=O)O)c23)ccc(OCCN2CCN(C)CC2)c1Cl", "note": "[Example 186, (2R)-2-{[(5Sa)-5-{3-chloro-2-methyl-4-[2-(4-methylpiperazin-1-yl)ethoxy]phenyl}-6-(5-fluorofuran-2-yl)thieno[2,3-d]pyrimidin-4-yl]oxy}-3-(2-{[1-(cyclopropylmethyl)-1H-pyrazol-5-yl]methoxy}phenyl)propanoic acid]", "values": [{"measurement": "IC50", "setting": "[1]", "value": "4.3e-09", "unit": "M"}, {"measurement": "IC50", "setting": "[2]", "value": 0.013, "unit": "µM"}]}, {"smiles": "CCCn1nccc1COc1ccccc1CC(Oc1ncnc2sc(-c3ccc(F)o3)c(-c3ccc(OCCN4CCN(C)CC4)c(Cl)c3C)c12)C(=O)O", "note": "[Example 187, (2R)-2-{[(5Sa)-5-{3-chloro-2-methyl-4-[2-(4-methylpiperazin-1-yl)ethoxy]phenyl}-6-(5-fluorofuran-2-yl)thieno[2,3-d]pyrimidin-4-yl]oxy}-3-{2-[(1-propyl-1H-pyrazol-5-yl)methoxy]phenyl}propanoic acid]", "values": [{"measurement": "IC50", "setting": "[1]", "value": "2.8e-09", "unit": "M"}, {"measurement": "IC50", "setting": "[2]", "value": 0.02, "unit": "µM"}]}]}
